Values after ≈ are worked out from the molar mass of the structure shown. Values joined by “and” are separate entries in the source; they are usually repeats but may differ in a detail not shown here. Equal entries are not always repeated. Where two headings read alike, the source gives them in different places.
Assays:
[1] = test system: bloodstream forms of Trypanosoma brucei rhodesiense STIB 900 strain; test: Activity against Trypanosoma brucei rhodesiense (resazurin, 72 h); format: cell-based; settings: for IC50: Trypanosoma brucei
Procedure: Minimum Essential Medium (50 µL) supplemented with 25 mM HEPES, 1 g/L additional glucose, 1% MEM non-essential amino acids (100×), 0.2 mM 2-mercaptoethanol, 1mM Na-pyruvate and 15% heat inactivated horse serum was added to each well of a 96-well microtiter plate. Serial drug dilutions of eleven 3-fold dilution steps covering a range from 100 to 0.002 μg/mL were prepared. Then 4 × 10^4 bloodstream forms of STIB 900 strain (the stock was isolated in 1982 from a human patient in Tanzania and after several mouse passages was cloned and adapted to axenic culture conditions) of T. b. rhodesiense in 50 μL was added to each well and the plate incubated at 37 °C under a 5% CO2 atmosphere for 72 h. 10 µL of a resazurin solution (prepared dissolving 12.5 mg resazurin in 100 mL double distilled water) was then added to each well and incubation continued for a further 2–4 h. Then the plates were read in a Spectramax Gemini XS microplate fluorometer (Molecular Devices Cooperation, Sunnyvale, CA, USA) using an excitation wavelength of 536 nm and an emission wavelength of 588 nm. The IC50 values were calculated by linear regression from the sigmoidal dose inhibition curves using SoftmaxPro software (Molecular Devices Cooperation, Sunnyvale, CA, USA). Melarsoprol was the standard drug.

[2] = Cytotoxicity against L6 cells (resazurin, 72 h); format: cell-based, rat
Procedure: Assays were performed in 96-well microtiter plates, each well containing 100 μL of RPMI 1640 medium supplemented with 1% L-glutamine (200 mM) and 10% fetal bovine serum, and 4 × 10^4 L-6 cells. Serial drug dilutions of eleven 3-fold dilution steps covering a range from 100 to 0.002 μg/mL were prepared. After 72 h of incubation the plates were inspected under an inverted microscope to assure growth of the controls and sterile conditions. 10 μL of a resazurin solution (prepared dissolving 12.5 mg resazurin in 100 mL double distilled water) was then added to each well and the plates incubated for another 2 h. The plates were read with a Spectramax Gemini XS microplate fluorometer using an excitation wavelength of 536 nm and an emission wavelength of 588 nm. The IC50 values were calculated by linear regression from the sigmoidal dose inhibition curves using SoftmaxPro software (Molecular Devices Cooperation, Sunnyvale, CA, USA). The reported IC50 values are the means of at least two separate experiments. Podophyllotoxin was used as control drug.

[3] = test system: bloodstream forms of Trypanosoma brucei rhodesiense STIB 900 strain; parameters: method as in PMID 22859016; settings: cited from earlier work
[4] = test system: bloodstream forms of Trypanosoma brucei rhodesiense STIB 900 strain; test: Activity against Trypanosoma brucei rhodesiense (resazurin, 72 h); format: cell-based; settings: at the highest test concentrations (20 μg/mL)
[5] = in vitro, bloodstream forms, mean of at least two replicates, read-out: IC50 T. b. rhodesiense
[6] = in vitro, bloodstream forms, mean of at least two replicates, read-out: IC50 T. b. rhodesiense (in parentheses)
[7] = in vitro, read-out: IC50 against T. b. rhodesiense
[8] = rat skeletal myoblasts, mean of at least two replicates, read-out: IC50 Cytotoxicity L6 cells
[9] = rat skeletal myoblasts, mean of at least two replicates, read-out: IC50 Cytotoxicity L6 cells (in parentheses)

In the case of `COC(=O)C[C@@H]1OO[C@@](CCCC=O)(OC)C[C@@H]1C` [Aldehyde 7], the IC50 [1, 5] is reported as 1.21 µg/mL, the IC50 [1, 6] is reported as 4420 nM and the IC50 at 72 h ([2]; rat) is reported as 7.55 µg/mL and 27.6 µM.

For manadoperoxide I, the “IC50 against T. b. rhodesiense” value ([3]; in vitro) is listed as 0.062 µg/mL and the IC50 [3, 7] is listed as 170 nM.

With `CC/C=C(C)/C=C/CCC[C@]1(OC)C[C@H](C)[C@H](CC(=O)O)OO1` [Manadoperoxidic acid B (3), manadoperoxidic acid B] the IC50 [1, 5] was 1.87 µg/mL, the IC50 [1, 6] was 5740 nM and the IC50 at 72 h ([2]; rat) was 7.12 µg/mL and 21.8 µM.

In the case of `CC[C@H]1OO[C@@H](CCC[C@]2(OC)C[C@H](C)[C@H](CC(=O)OC)OO2)C=C1C` [Compound 8], the IC50 [1, 5] is reported as 0.16 µg/mL, the IC50 [1, 6] is reported as 430 nM and the IC50 at 72 h ([2]; rat) is reported as 12.6 µg/mL and 33.8 µM.

For `CC/C=C(C)/C=C/CCCC1(O)C[C@H](C)[C@H](CC(=O)OC)O1` (stereo partly drawn) [Compound 6], the IC50 [1, 5] was > 20 µg/mL, the IC50 at 72 h ([2]; rat) was 82.3 µg/mL and 252 µM and the “antitrypanosomal activity (in words)” value [4] was “inactive”.

For peroxyplakoric ester B3, the “activity against T. b. rhodesiense (in words)” value ([3]; methyl linked at C-2 in place of C-4) is given as “almost completely lost”.

With `CC/C=C(C)\C=C\CCC[C@]1(OC)C[C@H](C)[C@H](CC(=O)OC)OO1` [12-Isomanadoperoxide B (2), 12-isomanadoperoxide B] the “selectivity index (SI)” value ([1]; IC50 against L6 cells divided by IC50 against the parasite) was 345, the IC50 [1, 5] was 0.011 µg/mL and the IC50 [1, 6] was 32 nM. The “trypanocidal activity relative to manadoperoxide B (1)” value ([1]; comparison of IC50 values against T. b. rhodesiense) was “four-fold reduction” and the IC50 at 72 h ([2]; rat) was 3.8 µg/mL and 11.2 µM.

Compound `Nc1nc(N)nc(Nc2ccc([As]3SCC(CO)S3)cc2)n1` (stereo not drawn) [Melarsoprol, reference compound] has an IC50 ([1]; read-out: IC50 T. b. rhodesiense) of 0.002 µg/mL, an IC50 ([1]; read-out: IC50 T. b. rhodesiense (in parentheses)) of 5 nM and an IC50 at 72 h [2, 8] of 7.3 µg/mL. It also gave an IC50 at 72 h [2, 9] of 18200 nM.

`COc1cc([C@@H]2c3cc4c(cc3[C@H](O)[C@H]3COC(=O)[C@H]23)OCO4)cc(OC)c1OC` [Podophyllotoxin, reference compound] showed an IC50 at 72 h [2, 8] of 0.004 µg/mL and an IC50 at 72 h [2, 9] of 9.6 nM.

In the case of manadoperoxide K, the “IC50 against T. b. rhodesiense” value ([3]; in vitro) is listed as 0.087 µg/mL and the IC50 [3, 7] is listed as 240 nM.

For `CC/C=C(C)/C=C/CCC[C@]1(OC)C[C@H](C)[C@H](CC(=O)OC)OO1` [Manadoperoxide B (1), manadoperoxide B], the “IC50 T. b. rhodesiense” value ([3]; in vitro) is given as 0.003 µg/mL (≈ 8.81 nM) and the IC50 ([3]; in vitro, read-out: IC50 T. b. rhodesiense (in parentheses)) is given as 8.8 nM.

Source: PMC3806476, “Natural and Semisynthetic Analogues of Manadoperoxide B Reveal New Structural Requirements for Trypanocidal Activity” (Marine Drugs, 2013)
